Assay results from patent US5225607A, “Insecticidal ethers” (Imperial Chemical Industries PLC, priority 1985, dated 1993).

Experiments:
Type in all cases: in vivo
Blattella germanica = test: Insecticidal test, Blattella germanica (cockroach nymphs), residual; conditions: 72 h, plastic pot, 3 days, read-out: grading of mortality, BG
Protocol: (§1) The activity of the Product was determined using a variety of insect and acarine pests. The Product was used in the form of liquid preparations containing 500, 250 or 100 parts per million (ppm) by weight of the Product. The preparations were made by dissolving the Product in acetone and diluting the solutions with water containing 0.01% by weight of a wetting agent sold under the trade name "LISSAPOL" NX until the liquid preparations contained the required concentratio of the Product. "Lissapol" is a Registered Trade Mark.
(§2) The test procedure adopted with regard to each pest was basically the same and comprised supporting a number of the pests on a medium which was usually a host plant or a foodstuff on which the pests feed, and treating either or both the pests and the medium with the preparations. The mortality of the pests was then assessed at periods usually varying from one to three days after the treatment.
(§3) The results of the tests are given in Table IV for each of the Products, at the rate in parts per million given in the second column as a grading of mortality designated as A, B or C wherein A indicates 80-100% mortality or knockdown (70-100% in the case of Spodoptera exigua), B indicates 50-79% mortality or knockdown (50-69% in the case of Spodoptera exigua) and C indicates less than 50% mortality or knockdown.
(§4) In Table IV the pest organism used is designated by a letter code and the pest species, the support medium or food, and the type and duration of test is given in Table III.

Heliothis virescens = test: whole plant or invertebrate; conditions: in Gossypium hirsutum, 72 h, read-out: grading of mortality, HV
Protocol: as §1, §2, §3, §4

Musca domestica [1] = test: Insecticidal test, Musca domestica (houseflies - adults), contact; conditions: 24 h, cotton wool/sugar, 1 day, read-out: grading of mortality, MD
Protocol: as §1, §2, §3, §4

Musca domestica [2] = test: Knockdown test, Musca domestica (houseflies - adults); conditions: cotton wool/sugar, 4 hours, read-out: grading of knockdown, MD/KD
Protocol: as §1, §2
In the case of the species Musca domestica (housefly), additional tests to determine the knockdown effect of the compounds were performed.
as §3, §4

Diabrotica balteata = test: Insecticidal test, Diabrotica balteata (rootworm larvae), residual; conditions: 72 h, filter paper/maize seed, 3 days, read-out: grading of mortality, DB
Protocol: as §1, §2, §3, §4

Tetranychus urticae = test: Insecticidal/acaricidal test, Tetranychus urticae (spider mites - adult), contact; conditions: 72 h, French bean leaf, 3 days, read-out: grading of mortality, TU
Protocol: as §1, §2, §3, §4

Myzus persicae = test: Insecticidal test, Myzus persicae (aphids), contact; conditions: 72 h, Chinese Cabbage leaf, 3 days, read-out: grading of mortality, MP
Protocol: as §1, §2, §3, §4

Nilaparvata lugens = test: Insecticidal test, Nilaparvata lugens (brown planthopper), contact; conditions: 72 h, Cabbage leaf, 3 days, read-out: grading of mortality, NL
Protocol: as §1, §2, §3, §4

Fc1ccc(COCC(Cl)(c2ccc(Cl)cc2)C(F)(F)F)cc1Oc1ccccc1 (stereo not shown) [Compound 50, 1,1,1-Trifluoro-2-chloro-2-(4-chlorophenyl)-3-(3-phenoxy-4-fluorobenzyloxy)propane]
mortality at 500 ppm (Blattella germanica): < 50% | mortality at 500 ppm (Heliothis virescens): 80 to 100% | mortality at 500 ppm (Musca domestica [1]): 80 to 100% | pest or weed control at 500 ppm (Musca domestica [2]): 80 to 100% | mortality at 500 ppm (Diabrotica balteata): 80 to 100% | mortality at 500 ppm (Tetranychus urticae): < 50% | mortality at 500 ppm (Myzus persicae): 80 to 100% | mortality at 500 ppm (Nilaparvata lugens): 80 to 100%

CCCc1ccc(C(=COCc2ccc(F)c(Oc3ccccc3)c2)C(F)(F)F)cc1 [Compound 460, 1,1,1-trifluoro-2-(4-n-propylphenyl)-3-(3-phenoxy-4-fluorobenzyloxy)prop-2-ene]
mortality at 500 ppm (Blattella germanica): 80 to 100% | mortality at 500 ppm (Heliothis virescens): < 50% | mortality at 500 ppm (Musca domestica [1]): < 50% | pest or weed control at 500 ppm (Musca domestica [2]): < 50% | mortality at 500 ppm (Diabrotica balteata): 50 to 79% | mortality at 500 ppm (Tetranychus urticae): < 50% | mortality at 500 ppm (Myzus persicae): < 50% | mortality at 500 ppm (Nilaparvata lugens): 50 to 79%

CCOc1ccc(C(Cl)(COCc2ccc(F)c(Oc3ccc(Cl)cc3)c2)C(F)(F)F)cc1 (stereo not shown) [Compound 44, 1,1,1-Trifluoro-2-chloro-2-(4-ethoxyphenyl)-3-(3-(4-chlorophenoxy)-4-fluorobenzyloxy)propane]
mortality at 500 ppm (Blattella germanica): 80 to 100% | mortality at 500 ppm (Heliothis virescens): 80 to 100% | mortality at 500 ppm (Musca domestica [1]): 80 to 100% | pest or weed control at 500 ppm (Musca domestica [2]): 80 to 100% | mortality at 500 ppm (Diabrotica balteata): 50 to 79% | mortality at 500 ppm (Tetranychus urticae): < 50% | mortality at 500 ppm (Myzus persicae): 80 to 100% | mortality at 500 ppm (Nilaparvata lugens): 80 to 100%

FC(F)(F)Oc1ccc(C(COCc2cccc(Oc3ccc(Cl)cc3)c2)C(F)(F)F)cc1 (stereo not shown) [Compound 26, 1,1,1-Trifluoro-2-(4-trifluoromethoxyphenyl)-3-(3-(4-chlorophenoxy)benzyloxy)propane]
mortality at 100 ppm (Blattella germanica): 80 to 100% | mortality at 100 ppm (Heliothis virescens): 80 to 100% | mortality at 100 ppm (Musca domestica [1]): 80 to 100% | pest or weed control at 100 ppm (Musca domestica [2]): 80 to 100% | mortality at 100 ppm (Diabrotica balteata): 80 to 100% | mortality at 100 ppm (Tetranychus urticae): 80 to 100% | mortality at 100 ppm (Myzus persicae): 50 to 79% | mortality at 100 ppm (Nilaparvata lugens): 80 to 100%

CCOc1ccc(C(COCc2c(F)c(F)c(C)c(F)c2F)C(F)(F)F)cc1 (stereo not shown) [Compound 2, 1,1,1-Trifluoro-2-(4-ethoxyphenyl)-3-(4-methyl-2,3,5,6-tetrafluorobenzyloxy)propane]
mortality at 500 ppm (Blattella germanica): 80 to 100% | mortality at 500 ppm (Heliothis virescens): < 50% | mortality at 500 ppm (Musca domestica [1]): 50 to 79% | pest or weed control at 500 ppm (Musca domestica [2]): < 50% | mortality at 500 ppm (Diabrotica balteata): 80 to 100% | mortality at 500 ppm (Tetranychus urticae): < 50% | mortality at 500 ppm (Myzus persicae): 50 to 79% | mortality at 500 ppm (Nilaparvata lugens): 80 to 100%

FC(F)(F)Oc1ccc(C(COCc2cccc(Oc3ccccc3)c2)C(F)(F)F)cc1 (stereo not shown) [Compound 27, 1,1,1-Trifluoro-2-(4-trifluoromethoxyphenyl)-3-(3-phenoxybenzyloxy)propane]
mortality at 100 ppm (Blattella germanica): 80 to 100% | mortality at 100 ppm (Heliothis virescens): 80 to 100% | mortality at 100 ppm (Musca domestica [1]): 80 to 100% | pest or weed control at 100 ppm (Musca domestica [2]): < 50% | mortality at 100 ppm (Diabrotica balteata): 80 to 100% | mortality at 100 ppm (Tetranychus urticae): 80 to 100% | mortality at 100 ppm (Myzus persicae): 80 to 100% | mortality at 100 ppm (Nilaparvata lugens): 80 to 100%

COc1ccc(C(COCc2ccc(F)c(Oc3ccccc3)c2)C(F)(F)F)cc1 (stereo not shown) [Compound 29, 1,1,1-Trifluoro-2-(4-methoxyphenyl)-3-(3-phenoxy-4-fluorobenzyloxy)propane]
mortality at 100 ppm (Blattella germanica): 80 to 100% | mortality at 100 ppm (Heliothis virescens): 80 to 100% | mortality at 100 ppm (Musca domestica [1]): 80 to 100% | pest or weed control at 100 ppm (Musca domestica [2]): 80 to 100% | mortality at 100 ppm (Diabrotica balteata): 80 to 100% | mortality at 100 ppm (Tetranychus urticae): < 50% | mortality at 100 ppm (Myzus persicae): 80 to 100% | mortality at 100 ppm (Nilaparvata lugens): 80 to 100%

FC(F)(F)Oc1ccc(C(=COCc2cccc(Oc3ccccc3)c2)C(F)(F)F)cc1 [Compound 463, 1,1,1-trifluoro-2-(4-trifluoromethoxyphenyl)-3-(3-phenoxybenzyloxy)prop-2-ene]
mortality at 500 ppm (Blattella germanica): 80 to 100% | mortality at 500 ppm (Heliothis virescens): 80 to 100% | mortality at 500 ppm (Musca domestica [1]): < 50% | pest or weed control at 500 ppm (Musca domestica [2]): < 50% | mortality at 500 ppm (Diabrotica balteata): 80 to 100% | mortality at 500 ppm (Tetranychus urticae): < 50% | mortality at 500 ppm (Myzus persicae): 80 to 100% | mortality at 500 ppm (Nilaparvata lugens): < 50%
